Experiment [1] has as its system mauvaises herbes. The format is in vivo. Conditions: post-emergence, 4000 g/ha. The text has this:
(§1) Des quantités appropriées des composés d'essai ont été dissoutes dans de l'acétone pour obtenir des solutions équivalant à des taux d'application de 250, 1000 ou 4000 g de composé d'essai par hectare (g/ha).
Les mauvaises herbes et les plantes cultivées ont été semées directement dans du compost de mise en pot John Innes dans des pots de 75 mm de profondeur et 70 mm de côté, sauf en ce qui concerne l'espèce du genre Amaranthus qui a été repiquée au stade de jeunes plants de semis et transférée dans les pots une semaine avant plulvérisation. Puis les plantes ont été cultivées dans la serre jusqu'à ce qu'elles soient prêtres à subir une pulvérisation avec les composés d'essai. Le nombre de plantes par pot étaient les suivants :
Les composés d'essai ont été appliqués aux plantes de la manière décrite dans le paragraphe (a). Un seul pot de chaque espèce de plante cultivée et de chaque espèce de mauvaise herbe a été attribué à chaque traitement, en association avec des témoins n'ayant pas subi de pulvérisation et des témoins ayant subi une pulvérisation avec de l'acétone seule.
Après traitement, les pots ont été maintenus dans une serre et ont été arrosés une fois par aspersion au bout de 24 heures, puis par sous - irrigation contrôlée. L'évaluation visuelle des dégâts infligés aux plantes cultivées et de la destruction des mauvaises herbes a été effectué 20 à 24 jours après pulvérisation. Les résultats ont été exprimés en pourcentage de réduction de croissance ou d'endommagement des plantes cultivées ou des mauvaises herbes, comparativement aux plantes présentes dans les pots témoins.

Experiment [2] deals with mauvaises herbes. Description: Procedure 2 d): weed control, pre-emergence. The format is in vivo. Conditions: 4000 g/ha (procédé 2D), visual rating 20 to 24 days after spraying, vs control pots.
From the text: as §1
Les graines ont été semées dans des pots en matière plastique de 70 mm de côté et 75 mm de profondeur, dans de la terre non stérile provenant de Boarded Barns Farm ou un type de terre similaire provenant d'une source convenable. Les quantités de graines par pot étaient les suivantes :
Les composés de la présente invention ont été appliqués à la surface du sol, contenant les semences, de la manière décrite dans le paragraphe (a). Un seul pot de chaque plante cultivée et de chaque mauvaise herbe a été attribué à chaque traitement, en association avec des témoins n'ayant pas subi de pulvérisation et des témoins ayant subi une pulvérisation avec de l'acétone seule. Après traitement, les pots ont été maintenus dans une serre et ont été arrosés par aspersion pendant 3 jours, puis par une sous- irrigation controlée. L'évaluation visuelle des dégats infligés aux plantes cultivées a été effectuée 20 à 24 jours après pulvérisation. Les résultats ont été exprimés en pourcentage de réduction de croissance ou d'endommagement des plantes cultivées ou des mauvaises herbes, comparativement aux plantes présentes dans les pots témoins.

Consider five compounds from patent publication EP0429372A1, “2-Azolyl nicotinate derivatives as herbicides” (RHONE-POULENC AGROCHIMIE, priority 1989, dated 1991).

Each structure is given as a SMILES string.

Take `COc1cccc2c1nc(-c1ncccc1C(=O)O)n2S(=O)(=O)N(C)C` [compound 90]: the “destruction d'une ou plusieurs des espèces de mauvaises herbes” value in experiment [1] was not below 90%. For the same compound, the “réduction de la croissance d'une ou plusieurs des espèces de mauvaises herbes” value in experiment [2] is given as not below 90%.
With `Cc1ccc2c(nc(-c3ncccc3C(=O)O)n2S(=O)(=O)N(C)C)c1C` [compound 91], in experiment [1], the “destruction d'une ou plusieurs des espèces de mauvaises herbes” value is not below 90%. In addition, the “réduction de la croissance d'une ou plusieurs des espèces de mauvaises herbes” value in experiment [2] is not below 90%.
On to `Cc1ccc(C(=O)O)c(-c2nc3ccccc3n2S(=O)(=O)N(C)C)n1` [compound 93], for which, in experiment [1], the “destruction d'une ou plusieurs des espèces de mauvaises herbes” value is not below 90%. For the same compound, in experiment [2], the “réduction de la croissance d'une ou plusieurs des espèces de mauvaises herbes” value is not below 90%.
Consider `C#CCOC(=O)c1cccnc1-c1nc2ccccc2n1S(=O)(=O)N(C)C` [compound 99], for which, in experiment [1], the “destruction d'une ou plusieurs des espèces de mauvaises herbes” value is not below 90%. In experiment [2], the “réduction de la croissance d'une ou plusieurs des espèces de mauvaises herbes” value is on record as not below 90%.
Take `CCCCCCOC(=O)c1cccnc1-c1nc2ccccc2n1S(=O)(=O)N(C)C` [compound 103]: in experiment [1], the “destruction d'une ou plusieurs des espèces de mauvaises herbes” value is listed as not below 90%. In experiment [2], the “réduction de la croissance d'une ou plusieurs des espèces de mauvaises herbes” value is not below 90%.
